Source: patent US11078170B2 (Assembly Biosciences, Inc., priority 2017, dated 2021)

Tested on: HBV viral production from HepAD38 cells
Test: Activity of test compounds on viral production from HepAD38 cells (viral load by qPCR of HBV core sequence in supernatant)
Assay type: cell-based
Settings: Hepatitis B virus, 120 h, 5 days incubation, HBV DNA in supernatant by qPCR, top concentration 10 μM, read-out: Viral Load EC50 Activity range
Summary of the method: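 HepAD38 cells, 50,000/well in tetracycline-free 2% FBS medium, treated 5 days at 37° C. with compound from 10 μM top concentration. HBV DNA in supernatant quantified by TaqMan qPCR of core sequence against DNA standards, relative to DMSO wells; CellTiter-Glo viability read in parallel. EC50/CC50 from four-parameter logistic fit.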

First: CN1[C@H](C(=O)Nc2ccc(F)c(Cl)c2)C[C@H](c2ncc(-c3cn[nH]c3)s2)NS1(=O)=O [HBV-CSU-254-ISO-I, Cis-5-(5-(1H-pyrazol-4-yl)thiazol-2-yl)-N-(3-chloro-4-fluorophenyl)-2-methyl-1,2,6-thiadiazinane-3-carboxamide 1,1-dioxide]
Second: CN1[C@@H](C(=O)Nc2ccc(F)c(Cl)c2)C[C@@H](c2ncc(-c3cn[nH]c3)s2)NS1(=O)=O [HBV-CSU-254-ISO-II, Cis-5-(5-(1H-pyrazol-4-yl)thiazol-2-yl)-N-(3-chloro-4-fluorophenyl)-2-methyl-1,2,6-thiadiazinane-3-carboxamide 1,1-dioxide]
The EC50 of the first is lower: < 1000 nM for the first, 1000 to 5000 nM for the second. The first is the more potent here.

First: COC(=O)c1ccc(C2CC(C(=O)Nc3ccc(F)c(Cl)c3)N(C)S(=O)(=O)N2)cc1 (stereo not drawn) [HBV-CSU-256, Cis-methyl 4-(5-((3-chloro-4-fluorophenyl)carbamoyl)-6-methyl-1,1-dioxido-1,2,6-thiadiazinan-3-yl)benzoate]
Second: CN1C(C(=O)Nc2ccc(F)c(Cl)c2)CC(c2ccc(Cl)cc2)NS1(=O)=O (stereo not drawn) [HBV-CSU-265, Cis-N-(3-Chloro-4-fluorophenyl)-5-(4-chlorophenyl)-2-methyl-1,2,6-thiadiazinane-3-carboxamide 1,1-dioxide]
The EC50 of the first is higher: 1000 to 5000 nM for the first, < 1000 nM for the second.

`CN1C(C(=O)Nc2ccc(F)c(Br)c2)CC(c2ccc(Br)s2)NS1(=O)=O` (stereo not drawn) [HBV-CSU-257, Cis-N-(3-Bromo-4-fluorophenyl)-5-(5-bromothiophen-2-yl)-2-methyl-1,2,6-thiadiazinane-3-carboxamide 1,1-dioxide] and `CN1[C@H](C(=O)Nc2ccc(F)c(Cl)c2)C[C@H](c2ccc(-c3cncs3)s2)NS1(=O)=O` [HBV-CSU-268-ISO-I, Cis-N-(3-Chloro-4-fluorophenyl)-2-methyl-5-(5-(thiazol-5-yl)thiophen-2-yl)-1,2,6-thiadiazinane-3-carboxamide 1,1-dioxide] cannot be ordered by EC50: < 1000 nM for the first, < 1000 nM for the second.

`CN1C(C(=O)Nc2ccc(F)c(Cl)c2)CC(c2cccc(C(F)(F)F)c2)NS1(=O)=O` (stereo not drawn) [HBV-CSU-259, Cis-N-(3-chloro-4-fluorophenyl)-2-methyl-5-(3-(trifluoromethyl)phenyl)-1,2,6-thiadiazinane-3-carboxamide 1,1-dioxide] and `CN1[C@H](C(=O)Nc2ccc(F)c(Cl)c2)C[C@H](c2cccc(Cl)c2)NS1(=O)=O` [HBV-CSU-261-ISO-I, Cis-N-(3-Chloro-4-fluorophenyl)-5-(3-chlorophenyl)-2-methyl-1,2,6-thiadiazinane-3-carboxamide 1,1-dioxide] cannot be ordered by EC50: < 1000 nM for the first, < 1000 nM for the second.

Going from `CN1C(C(=O)Nc2ccc(F)c(Cl)c2)CC(c2cc(Cl)c(O)c(Cl)c2)NS1(=O)=O` (stereo not drawn) [HBV-CSU-260, Cis-N-(3-Chloro-4-fluorophenyl)-5-(3,5-dichloro-4-hydroxyphenyl)-2-methyl-1,2,6-thiadiazinane-3-carboxamide 1,1-dioxide] to `CN1[C@@H](C(=O)Nc2ccc(F)c(Cl)c2)C[C@@H](c2cccc(Cl)c2)NS1(=O)=O` [HBV-CSU-261-ISO-II, Cis-N-(3-Chloro-4-fluorophenyl)-5-(3-chlorophenyl)-2-methyl-1,2,6-thiadiazinane-3-carboxamide 1,1-dioxide], the EC50 rises from < 1000 nM to > 5000 nM. The first is the more potent here.

Going from `CN1[C@@H](C(=O)Nc2ccc(F)c(Cl)c2)C[C@@H](c2ccc(Cl)cc2)NS1(=O)=O` [HBV-CSU-265-ISO-II] to `CN1[C@H](C(=O)Nc2ccc(F)c(Cl)c2)C[C@H](c2ccc(Cl)cc2)NS1(=O)=O` [HBV-CSU-265-ISO-I], the EC50 falls from > 5000 nM to < 1000 nM. The second is the more potent here.

Compared with `CN1[C@H](C(=O)Nc2ccc(F)c(Cl)c2)C[C@H](c2ccc(-c3cn(C)cn3)s2)NS1(=O)=O` [HBV-CSU-266-ISO-I, (3S,5R)-N-(3-chloro-4-fluorophenyl)-2-methyl-5-(5-(1-methyl-1H-imidazol-4-yl)thiophen-2-yl)-1,2,6-thiadiazinane-3-carboxamide 1,1-dioxide], `CN1[C@@H](C(=O)Nc2ccc(F)c(Cl)c2)C[C@@H](c2ccc(-c3cn(C)cn3)s2)NS1(=O)=O` [HBV-CSU-266-ISO-II, Cis-N-(3-Chloro-4-fluorophenyl)-2-methyl-5-(5-(1-methyl-1H-imidazol-4-yl)thiophen-2-yl)-1,2,6-thiadiazinane-3-carboxamide 1,1-dioxide] is higher in EC50: < 1000 nM for the first, 1000 to 5000 nM for the second. The first is the more potent here.

First: CN1[C@@H](C(=O)Nc2ccc(F)c(Cl)c2)C[C@H](c2ccc(-c3cn(C)cn3)s2)NS1(=O)=O [HBV-CSU-266-Trans-ISO-I, (3R,5R)-N-(3-chloro-4-fluorophenyl)-2-methyl-5-(5-(1-methyl-1H-imidazol-4-yl)thiophen-2-yl)-1,2,6-thiadiazinane-3-carboxamide 1,1-dioxide]
Second: CN1[C@H](C(=O)Nc2ccc(F)c(Cl)c2)C[C@@H](c2ccc(-c3cn(C)cn3)s2)NS1(=O)=O [HBV-CSU-266-Trans-ISO-II, (3S,5S)-N-(3-chloro-4-fluorophenyl)-2-methyl-5-(5-(1-methyl-1H-imidazol-4-yl)thiophen-2-yl)-1,2,6-thiadiazinane-3-carboxamide 1,1-dioxide]
The EC50 of the first is lower: < 1000 nM for the first, 1000 to 5000 nM for the second. The first is the more potent here.

`CN1[C@H](C(=O)Nc2ccc(F)c(Cl)c2)C[C@H](c2ccc(-c3cncn3C)s2)NS1(=O)=O` [HBV-CSU-267-ISO-I, Cis-N-(3-Chloro-4-fluorophenyl)-2-methyl-5-(5-(1-methyl-1H-imidazol-5-yl)thiophen-2-yl)-1,2,6-thiadiazinane-3-carboxamide 1,1-dioxide] and `CN1[C@@H](C(=O)Nc2ccc(F)c(Cl)c2)C[C@@H](c2ccc(-c3cncn3C)s2)NS1(=O)=O` [HBV-CSU-267-ISO-II, Cis-N-(3-Chloro-4-fluorophenyl)-2-methyl-5-(5-(1-methyl-1H-imidazol-5-yl)thiophen-2-yl)-1,2,6-thiadiazinane-3-carboxamide 1,1-dioxide] cannot be ordered by EC50: < 1000 nM for the first, < 1000 nM for the second.

Going from `CN1[C@@H](C(=O)Nc2ccc(F)c(Cl)c2)C[C@@H](c2ccc(-c3cncs3)s2)NS1(=O)=O` [HBV-CSU-268-ISO-II, Cis-N-(3-Chloro-4-fluorophenyl)-2-methyl-5-(5-(thiazol-5-yl)thiophen-2-yl)-1,2,6-thiadiazinane-3-carboxamide 1,1-dioxide] to `CN1[C@H](C(=O)Nc2ccc(F)c(Cl)c2)C[C@H](c2ccc(-c3cnco3)s2)NS1(=O)=O` [HBV-CSU-269-ISO-I, Cis-N-(3-Chloro-4-fluorophenyl)-2-methyl-5-(5-(oxazol-5-yl)thiophen-2-yl)-1,2,6-thiadiazinane-3-carboxamide 1,1-dioxide], the EC50 falls from > 5000 nM to < 1000 nM.

First: CN1[C@@H](C(=O)Nc2ccc(F)c(Cl)c2)C[C@@H](c2ccc(-c3cnco3)s2)NS1(=O)=O [HBV-CSU-269-ISO-II, Cis-N-(3-Chloro-4-fluorophenyl)-2-methyl-5-(5-(oxazol-5-yl)thiophen-2-yl)-1,2,6-thiadiazinane-3-carboxamide 1,1-dioxide]
Second: CN1[C@H](C(=O)Nc2ccc(F)c(Cl)c2)C[C@H](c2ccc(-c3ccnn3C)s2)NS1(=O)=O [HBV-CSU-271-ISO-I, Cis-N-(3-chloro-4-fluorophenyl)-2-methyl-5-(5-(1-methyl-1H-pyrazol-5-yl)thiophen-2-yl)-1,2,6-thiadiazinane-3-carboxamide 1,1-dioxide]
The EC50 of the first is higher: 1000 to 5000 nM for the first, < 1000 nM for the second. The second is the more potent here.

Compared with `CN1[C@H](C(=O)Nc2ccc(F)c(Cl)c2)C[C@H](c2ccc(-c3ccn(C)n3)s2)NS1(=O)=O` [HBV-CSU-270-ISO-I, Cis-N-(3-Chloro-4-fluorophenyl)-2-methyl-5-(5-(1-methyl-1H-pyrazol-3-yl)thiophen-2-yl)-1,2,6-thiadiazinane-3-carboxamide 1,1-dioxide], `CN1[C@@H](C(=O)Nc2ccc(F)c(Cl)c2)C[C@@H](c2ccc(-c3ccn(C)n3)s2)NS1(=O)=O` [HBV-CSU-270-ISO-II, Cis-N-(3-Chloro-4-fluorophenyl)-2-methyl-5-(5-(1-methyl-1H-pyrazol-3-yl)thiophen-2-yl)-1,2,6-thiadiazinane-3-carboxamide 1,1-dioxide] is higher in EC50: < 1000 nM for the first, 1000 to 5000 nM for the second. The first is the more potent here.

Compared with `CN1[C@@H](C(=O)Nc2ccc(F)c(Cl)c2)C[C@@H](c2ccc(-c3ccnn3C)s2)NS1(=O)=O` [HBV-CSU-271-ISO-II, Cis-N-(3-chloro-4-fluorophenyl)-2-methyl-5-(5-(1-methyl-1H-pyrazol-5-yl)thiophen-2-yl)-1,2,6-thiadiazinane-3-carboxamide 1,1-dioxide], `CN1[C@H](C(=O)Nc2ccc(F)c(Cl)c2)C[C@H](c2ccc(-c3cncnc3)s2)NS1(=O)=O` [HBV-CSU-272-ISO-I, Cis-N-(3-chloro-4-fluorophenyl)-2-methyl-5-(5-(pyrimidin-5-yl)thiophen-2-yl)-1,2,6-thiadiazinane-3-carboxamide 1,1-dioxide] is lower in EC50: 1000 to 5000 nM for the first, < 1000 nM for the second.

Compared with `CN1[C@@H](C(=O)Nc2ccc(F)c(Cl)c2)C[C@@H](c2ccc(-c3cncnc3)s2)NS1(=O)=O` [HBV-CSU-272-ISO-II, Cis-N-(3-chloro-4-fluorophenyl)-2-methyl-5-(5-(pyrimidin-5-yl)thiophen-2-yl)-1,2,6-thiadiazinane-3-carboxamide 1,1-dioxide], `CN1C(C(=O)Nc2ccc(F)c(Cl)c2)CC(c2ccc3ncsc3c2)NS1(=O)=O` (stereo not drawn) [HBV-CSU-273, Cis-5-(benzo[d]thiazol-6-yl)-N-(3-chloro-4-fluorophenyl)-2-methyl-1,2,6-thiadiazinane-3-carboxamide 1,1-dioxide] is lower in EC50: > 5000 nM for the first, < 1000 nM for the second.

First: CN1[C@H](C(=O)Nc2ccc(F)c(Cl)c2)C[C@H](c2ncc(-c3cn(C)cn3)s2)NS1(=O)=O [HBV-CSU-276-ISO-I, (3S,5R)-N-(3-chloro-4-fluorophenyl)-2-methyl-5-(5-(1-methyl-1H-imidazol-4-yl)thiazol-2-yl)-1,2,6-thiadiazinane-3-carboxamide 1,1-dioxide]
Second: CN1[C@@H](C(=O)Nc2ccc(F)c(Cl)c2)C[C@@H](c2ncc(-c3cn(C)cn3)s2)NS1(=O)=O [HBV-CSU-276-ISO-II, Cis-N-(3-Chloro-4-fluorophenyl)-2-methyl-5-(5-(1-methyl-1H-imidazol-4-yl)thiazol-2-yl)-1,2,6-thiadiazinane-3-carboxamide 1,1-dioxide]
The EC50 of the first is lower: < 1000 nM for the first, > 5000 nM for the second. The first is the more potent here.
